Tests used:
Format in all cases: functional, organism-based, Hepacivirus hominis
Hepatitis C virus [1] = test: Antiviral activity against HCV genotype 1a assessed as replicon RNA level measured after 3 days by real-time PCR method; conditions: subtype 1a, 72 h
Hepatitis C virus [2] = test: Antiviral activity against HCV genotype 1b assessed as replicon RNA level measured after 3 days by real-time PCR method; conditions: 72 h
Hepatitis C virus [3] = test: Antiviral activity against HCV genotype 1a harboring NS5A Y93H mutant assessed as replicon RNA level measured after 3 days by real-time PCR method; conditions: subtype 1a, 72 h
Hepatitis C virus [4] = test: Antiviral activity against HCV genotype 2b assessed as replicon RNA level measured after 3 days by real-time PCR method; conditions: 72 h
Hepatitis C virus [5] = test: Antiviral activity against HCV genotype 4a assessed as replicon RNA level measured after 3 days by real-time PCR method; conditions: 72 h
Hepatitis C virus [6] = test: Antiviral activity against HCV genotype 3a assessed as replicon RNA level measured after 3 days by real-time PCR method; conditions: 72 h
Hepatitis C virus [7] = test: Antiviral activity against HCV genotype 1a harboring NS5A L31V mutant assessed as replicon RNA level measured after 3 days by real-time PCR method; conditions: subtype 1a, 72 h
Hepatitis C virus [8] = test: Antiviral activity against HCV genotype 2a assessed as replicon RNA level measured after 3 days by real-time PCR method; conditions: 72 h

SMILES	EC50 (Hepatitis C virus [1]) [pM]	EC50 (Hepatitis C virus [2]) [pM]	EC50 (Hepatitis C virus [3]) [nM]	EC50 (Hepatitis C virus [4]) [nM]	EC50 (Hepatitis C virus [5]) [pM]	EC50 (Hepatitis C virus [6]) [nM]	EC50 (Hepatitis C virus [7]) [nM]	EC50 (Hepatitis C virus [8]) [pM]
COC(=O)N[C@H](C(=O)N1CCC[C@H]1c1ncc(-c2ccc3c(c2)OC(c2ccccc2)n2c-3cc3cc(-c4cnc([C@@H]5CCCN5C(=O)[C@@H](NC(=O)OC)C(C)C)[nH]4)ccc32)[nH]1)C(C)C (stereo partly specified)	4	3	2	3	3	0.02	0.5	3
COC(=O)N[C@H](C(=O)N1CCC[C@H]1c1ncc(-c2ccc3c(c2)OC(c2cccc(-c4ccccc4)c2)n2c-3cc3cc(-c4cnc([C@@H]5CCCN5C(=O)[C@@H](NC(=O)OC)C(C)C)[nH]4)ccc32)[nH]1)C(C)C (stereo partly specified)	3	4	8	1	5	0.07	0.3	3
COC(=O)N[C@H](C(=O)N1CCC[C@H]1c1ncc(-c2ccc3c(c2)OC(c2cccc(C4CC4)c2)n2c-3cc3cc(-c4cnc([C@@H]5CCCN5C(=O)[C@@H](NC(=O)OC)C(C)C)[nH]4)ccc32)[nH]1)C(C)C (mixture of isomers)	4	2	12	7	2	0.3	0.6	10
CNC(=O)c1cccc(C2Oc3cc(-c4cnc([C@@H]5CCCN5C(=O)[C@@H](NC(=O)OC)C(C)C)[nH]4)ccc3-c3cc4cc(-c5cnc([C@@H]6CCCN6C(=O)[C@@H](NC(=O)OC)C(C)C)[nH]5)ccc4n32)c1 (mixture of isomers)	60	10	145	24	180	0.9	< 10	90
COC(=O)N[C@H](C(=O)N1CCC[C@H]1c1ncc(-c2ccc3c(c2)OC(c2cccc(-c4noc(C)n4)c2)n2c-3cc3cc(-c4cnc([C@@H]5CCCN5C(=O)[C@@H](NC(=O)OC)C(C)C)[nH]4)ccc32)[nH]1)C(C)C (mixture of isomers)	3	4	0.9	2	10	0.07	0.2	2
COC(=O)N[C@H](C(=O)N1CCC[C@H]1c1ncc(-c2ccc3c(c2)OC(c2cccc(N4CCOCC4)c2)n2c-3cc3cc(-c4cnc([C@@H]5CCCN5C(=O)[C@@H](NC(=O)OC)C(C)C)[nH]4)ccc32)[nH]1)C(C)C (mixture of isomers)	4	6	52	17	7	0.12	0.3	2
CCc1cccc(C2Oc3cc(-c4cnc([C@@H]5CCCN5C(=O)[C@@H](NC(=O)OC)C(C)C)[nH]4)ccc3-c3cc4cc(-c5cnc([C@@H]6CCCN6C(=O)[C@@H](NC(=O)OC)C(C)C)[nH]5)ccc4n32)c1 (mixture of isomers)	2	2	10	3	1	0.2	0.51	20
COC(=O)N[C@H](C(=O)N1CCC[C@H]1c1ncc(-c2ccc3c(c2)OC(c2cccc(C(=O)N(C)C)c2)n2c-3cc3cc(-c4cnc([C@@H]5CCCN5C(=O)[C@@H](NC(=O)OC)C(C)C)[nH]4)ccc32)[nH]1)C(C)C (mixture of isomers)	20	10	> 100	41	180	> 1	0.4	40
COC(=O)N[C@H](C(=O)N1CCC[C@H]1c1ncc(-c2ccc3c(c2)OC(c2cccc(-c4ccc(-c5ccccc5)cc4)c2)n2c-3cc3cc(-c4cnc([C@@H]5CCCN5C(=O)[C@@H](NC(=O)OC)C(C)C)[nH]4)ccc32)[nH]1)C(C)C (mixture of isomers)	6	3	2	3	5	0.01	0.3	3
COC(=O)N[C@H](C(=O)N1CCC[C@H]1c1ncc(-c2ccc3c(c2)OC(c2cccc(-c4ncon4)c2)n2c-3cc3cc(-c4cnc([C@@H]5CCCN5C(=O)[C@@H](NC(=O)OC)C(C)C)[nH]4)ccc32)[nH]1)C(C)C (mixture of isomers)	9	6	6	4	20	0.4	0.2	7
COC(=O)N[C@H](C(=O)N1CCC[C@H]1c1ncc(-c2ccc3c(c2)OC(c2ccc(-c4cccc(-c5ccccc5)c4)cc2)n2c-3cc3cc(-c4cnc([C@@H]5CCCN5C(=O)[C@@H](NC(=O)OC)C(C)C)[nH]4)ccc32)[nH]1)C(C)C (mixture of isomers)	< 20	3	2	< 2	< 20	0.2	< 2	< 20
COC(=O)N[C@H](C(=O)N1CCC[C@H]1c1ncc(-c2ccc3c(c2)OC(c2ccc(-c4ccncc4)cc2)n2c-3cc3cc(-c4cnc([C@@H]5CCCN5C(=O)[C@@H](NC(=O)OC)C(C)C)[nH]4)ccc32)[nH]1)C(C)C (mixture of isomers)	3	4	19	< 2	20	0.1	0.3	< 200
COC(=O)N[C@H](C(=O)N1CCC[C@H]1c1ncc(-c2ccc3c(c2)OC(c2ccc(-c4ccccc4)cc2)n2c-3cc3cc(-c4cnc([C@@H]5CCCN5C(=O)[C@@H](NC(=O)OC)C(C)C)[nH]4)ccc32)[nH]1)C(C)C (mixture of isomers)	< 20	< 20	< 2	< 2	< 20	< 0.2	< 2	< 200
COC(=O)N[C@H](C(=O)N1CCC[C@H]1c1ncc(-c2ccc3c(c2)OC(c2ccc(-c4ccc(-c5ccccc5)cc4)cc2)n2c-3cc3cc(-c4cnc([C@@H]5CCCN5C(=O)[C@@H](NC(=O)OC)C(C)C)[nH]4)ccc32)[nH]1)C(C)C (mixture of isomers)	1	2	< 2	0.06	1	0.1	0.06	3
COC(=O)N[C@H](C(=O)N1CCC[C@H]1c1ncc(-c2ccc3c(c2)OC(c2ccc(C4CC4)cc2)n2c-3cc3cc(-c4cnc([C@@H]5CCCN5C(=O)[C@@H](NC(=O)OC)C(C)C)[nH]4)ccc32)[nH]1)C(C)C (mixture of isomers)	3	< 20	0.5	0.5	< 200	0.03	0.04	< 200
COC(=O)N[C@H](C(=O)N1CCC[C@H]1c1ncc(-c2ccc3c(c2)OC(c2cccc(-c4ccc(N)nc4)c2)n2c-3cc3cc(-c4cnc([C@@H]5CCCN5C(=O)[C@@H](NC(=O)OC)C(C)C)[nH]4)ccc32)[nH]1)C(C)C (mixture of isomers)	4	6	10	2	2	0.2	0.2	5
COC(=O)N[C@H](C(=O)N1CCC[C@H]1c1ncc(-c2ccc3c(c2)OC(c2cccc(-c4cccnc4)c2)n2c-3cc3cc(-c4cnc([C@@H]5CCCN5C(=O)[C@@H](NC(=O)OC)C(C)C)[nH]4)ccc32)[nH]1)C(C)C (mixture of isomers)	6	8	26	8	3	0.08	0.2	4
